This note sets out measurements from ChEMBL document CHEMBL1687845, “Carotenoid-related alteration of cell membrane fluidity impacts Staphylococcus aureus susceptibility to host defense peptides” (2011).

Test [1] deals with Staphylococcus aureus. As to the kind of experiment: Antibacterial activity against wild type methicillin-susceptible Staphylococcus aureus SA144 assessed as bacterial survival at 40 ug/ml after 2 hrs. The class given is functional, organism-based.
Test [2] has as its system Staphylococcus aureus. As to the kind of experiment: Antibacterial activity against wild type methicillin-susceptible Staphylococcus aureus SA144 assessed as bacterial survival at 80 ug/ml after 2 hrs. The class given is functional, organism-based.
Test [3] has as its system Staphylococcus aureus. As to the kind of experiment: Antibacterial activity against methicillin-susceptible Staphylococcus aureus SA145 harboring crtM deletion mutant assessed as bacterial survival at 80 ug/ml after 2 hrs. The class given is functional, organism-based.
Test [4] concerns Staphylococcus aureus. As to the kind of experiment: Antibacterial activity against methicillin-susceptible Staphylococcus aureus SA147 harboring deltacrtM-pDCerm::crtMN assessed as bacterial survival at 40 ug/ml after 2 hrs. The class given is functional, organism-based.
For test [5], the system named is Staphylococcus aureus. As to the kind of experiment: Antibacterial activity against methicillin-susceptible Staphylococcus aureus SA147 harboring deltacrtM-pDCerm::crtMN assessed as bacterial survival at 80 ug/ml after 2 hrs. The class given is functional, organism-based.
Test [6] has as its system Staphylococcus aureus. As to the kind of experiment: Antibacterial activity against methicillin-susceptible Staphylococcus aureus SA145 harboring crtM deletion mutant assessed as bacterial survival at 40 ug/ml after 2 hrs. The class given is functional, organism-based.
Test [7] has as its system Staphylococcus aureus. As to the kind of experiment: Antibacterial activity against methicillin-susceptible Staphylococcus aureus SA145 harboring crtM deletion mutant assessed as bacterial survival at 2.5 ug/ml after 2 hrs. The class given is functional. As to conditions: SA145, 2 h.
The test system of test [8] is Staphylococcus aureus. As to the kind of experiment: Antibacterial activity against wild type methicillin-susceptible Staphylococcus aureus SA144 assessed as bacterial survival at 5 ug/ml after 2 hrs. The class given is functional. The conditions noted are these: SA144, 2 h.
The test system of test [9] is Staphylococcus aureus. As to the kind of experiment: Antibacterial activity against methicillin-susceptible Staphylococcus aureus SA147 harboring deltacrtM-pDCerm::crtMN assessed as bacterial survival at 2.5 ug/ml after 2 hrs. The conditions noted are these: SA147, 2 h. The class given is functional.
The subject of test [10] is Staphylococcus aureus. As to the kind of experiment: Antibacterial activity against methicillin-susceptible Staphylococcus aureus SA145 harboring crtM deletion mutant assessed as bacterial survival at 5 ug/ml after 2 hrs. The class given is functional. The conditions noted are these: SA145, 2 h.
Test [11] has as its system Staphylococcus aureus. As to the kind of experiment: Antibacterial activity against methicillin-susceptible Staphylococcus aureus SA147 harboring deltacrtM-pDCerm::crtMN assessed as bacterial survival at 5 ug/ml after 2 hrs. The class given is functional. As to conditions: SA147, 2 h.
Test [12] deals with Staphylococcus aureus. As to the kind of experiment: Antibacterial activity against wild type methicillin-susceptible Staphylococcus aureus SA144 assessed as bacterial survival at 2.5 ug/ml after 2 hrs. The class given is functional. The conditions noted are these: SA144, 2 h.
Test [13] deals with Staphylococcus aureus. As to the kind of experiment: Antibacterial activity against wild type methicillin-susceptible Staphylococcus aureus SA144 assessed as bacterial survival at 0.625 ug/ml after 2 hrs. The conditions noted are these: SA144, 2 h. The class given is functional.
Test [14] deals with Staphylococcus aureus. As to the kind of experiment: Antibacterial activity against methicillin-susceptible Staphylococcus aureus SA147 harboring deltacrtM-pDCerm::crtMN assessed as bacterial survival at 1.25 ug/ml after 2 hrs. The class given is functional. The conditions noted are these: SA147, 2 h.
In test [15] the test system is Staphylococcus aureus. As to the kind of experiment: Antibacterial activity against methicillin-susceptible Staphylococcus aureus SA145 harboring crtM deletion mutant by Etest. The class given is functional.
Test [16] has as its system Staphylococcus aureus. As to the kind of experiment: Antibacterial activity against methicillin-susceptible Staphylococcus aureus SA147 harboring deltacrtM-pDCerm::crtMN by Etest. The class given is functional.
For test [17], the system named is Staphylococcus aureus. As to the kind of experiment: Ratio of MIC for methicillin-susceptible Staphylococcus aureus SA147 harboring deltacrtM-pDCerm::crtMN to MIC for wild type methicillin-susceptible Staphylococcus aureus SA144. The class given is functional.
For test [18], the system named is Staphylococcus aureus. As to the kind of experiment: Antibacterial activity against methicillin-susceptible Staphylococcus aureus SA146 harboring deltacrtM-pDCerm by Etest. The class given is functional.
Test [19] concerns Staphylococcus aureus. As to the kind of experiment: Antibacterial activity against methicillin-susceptible Staphylococcus aureus SA145 harboring crtM deletion mutant assessed as bacterial survival at 1.25 ug/ml after 2 hrs. The class given is functional. The conditions noted are these: SA145, 2 h.
Test [20] concerns Staphylococcus aureus. As to the kind of experiment: Antibacterial activity against wild type methicillin-susceptible Staphylococcus aureus SA144 by Etest. The class given is functional.
In test [21] the test system is Staphylococcus aureus. As to the kind of experiment: Antibacterial activity against methicillin-susceptible Staphylococcus aureus SA147 harboring deltacrtM-pDCerm::crtMN assessed as bacterial survival at 0.625 ug/ml after 2 hrs. The class given is functional. The conditions noted are these: SA147, 2 h.
Test [22] has as its system Staphylococcus aureus. As to the kind of experiment: Antibacterial activity against wild type methicillin-susceptible Staphylococcus aureus SA144 assessed as bacterial survival at 1.25 ug/ml after 2 hrs. As to conditions: SA144, 2 h. The class given is functional.
Test [23] relates to Staphylococcus aureus. As to the kind of experiment: Antibacterial activity against methicillin-susceptible Staphylococcus aureus SA145 harboring crtM deletion mutant assessed as bacterial survival at 0.625 ug/ml after 2 hrs. The conditions noted are these: SA145, 2 h. The class given is functional.

Converted amounts (≈) assume the structure as drawn.

With POLYMYXIN B, the Survival with Staphylococcus aureus [1] is 29%; with Staphylococcus aureus [2], 13%; in the test on Staphylococcus aureus [3], 14%; with Staphylococcus aureus [4], 25%; in the test on Staphylococcus aureus [5] it was 26%; in the test on Staphylococcus aureus [6] it was 23%.
With H-ALYKKFKKKLLKSLKRLG-OH, the survival at 2.5 µg/mL stood at 18% in the test on Staphylococcus aureus [7], 55% with Staphylococcus aureus [9] and 23% in the test with Staphylococcus aureus [12]. In addition, the values for the survival at 5 µg/mL with Staphylococcus aureus [8], in the test with Staphylococcus aureus [10] and in the test on Staphylococcus aureus [11] were 11%, 13% and 23%, respectively.
For the compound `CCCCCCCCCC(=O)N[C@@H](Cc1c[nH]c2ccccc12)C(=O)N[C@H](CC(N)=O)C(=O)N[C@@H](CC(=O)O)C(=O)N[C@@H]1C(=O)NCC(=O)N[C@@H](CCCN)C(=O)N[C@@H](CC(=O)O)C(=O)N[C@H](C)C(=O)N[C@@H](CC(=O)O)C(=O)NCC(=O)N[C@H](CO)C(=O)N[C@@H]([C@H](C)CC(=O)O)C(=O)N[C@@H](CC(=O)c2ccccc2N)C(=O)O[C@@H]1C`, the figures for the survival at 0.625 µg/mL with Staphylococcus aureus [13], with Staphylococcus aureus [21] and in the test on Staphylococcus aureus [23] were 18%, 55% and 24%, respectively. The survival at 1.25 µg/mL stood at 49% in the test with Staphylococcus aureus [14], 21% in the test on Staphylococcus aureus [19] and 12% with Staphylococcus aureus [22]. Besides, the MIC worked out at 0.75 µg/mL (≈ 0.463 µM) in the test on Staphylococcus aureus [15], 1.5 µg/mL (≈ 0.926 µM) in the test with Staphylococcus aureus [16], 0.75 µg/mL (≈ 0.463 µM) with Staphylococcus aureus [18] and 0.75 µg/mL (≈ 0.463 µM) with Staphylococcus aureus [20]. The Ratio with Staphylococcus aureus [17] was found to be 2.
